Laboratory results: patent US20220257532A1 (priority 2017, published 2022)
Entries after “also recorded” stand apart in the source; their conditions may differ. Like-named read-outs stand apart in the source and are kept apart here.

What was measured:
[1] = target: BACE1 (β-secretase, recombinant human enzyme) (Homo sapiens, UniProt P56817); assay: biochemical; assay type: biochemical; details: for Inhibition type BACE1: Dixon plot and Lineweaver plot; for BACE1 IC50 compared with quercetin, in words: positive control quercetin
Method: A BACE1 fluorescence resonance energy transfer (FRET) assay kit (β-secretase, recombinant human enzyme) was purchased from Pan Vera Co. (Madison, Wis., USA).
BACE1 is an enzyme promotive of the production of β-amyloid, which destroys neurons. In order to examine the effects on the compounds of Table 1 on the activity of BACE1, IC(inhibition concentrations)50 values were determined by measuring BACE1 activity in vitro according to Experimental Methods.

[2] = target: T1, butyrylcholinesterase (BChE, EC3.1.1.8) (Equus caballus, UniProt P81908); assay: In vitro cholinesterase activity assay (Ellman) and enzyme kinetics, BChE; assay type: biochemical; details: for SI selectivity index (BChE/AChE): ratio of IC50 BChE/AChE; for Inhibition type Butyrylcholinesterase: Dixon plot and Lineweaver plot; for BChE inhibition / IC50 rank, in words: among the compounds tested
T1 construct: horse serum butyrylcholinesterase (BChE, EC3.1.1.8); purchased Sigma-Aldrich Co. (St. Louis, Mo., USA); host or cells: horse serum
Method: (§1) The reaction started with the addition of 10 μL of DTNB and 10 μL of Ach or Bch.
(§2) Briefly, the basis for this assay is the hydrolysis of acetylthiocholine by acetylcholinesterase, producing thiocholine that reacts with DTNB. […] Degrees of inhibition were calculated according to […] wherein E and S represent enzyme activities in the presence and absence of a test sample, respectively.
(§3) The compounds of Table 1 were evaluated for anti-Alzheimer activity. In this regard, inhibitory activity against AChE (acetylcholinesterase) and BChE (butyrylcholinesterase), which lyse acetylcholine in the central nervous system, was measured according to the Experimental Method to calculate IC(inhibition concentrations)50 values.

[3] = target: T2, acetylcholinesterase (AChE, EC3.1.1.7) (Electrophorus electricus, UniProt O42275); assay: In vitro cholinesterase activity assay (Ellman) and enzyme kinetics, AChE; assay type: biochemical; details: for Inhibition type Acetylcholinesterase: Dixon plot and Lineweaver plot; for AChE inhibition / IC50 rank, in words: among the compounds tested
T2 construct: purchased Sigma-Aldrich Co. (St. Louis, Mo., USA)
Method: as §1, §2, §3

[4] = test system: B16F10 (mouse melanoma cell-line); assay: MTT cytotoxicity assay, cancerous cell line; assay type: cell-based; details: for LD50 Cancer cell 816F10: MTT, incubated for 48 hours with compound; for toxicity to cancerous cells, in words: conclusion from LD50, MTT
Method: (§4) Mouse fibroblast cell line NIH3T3 and mouse melanoma cell line B16F10 were separately seeded at a density of 1×10^3 cells/well into 96-well plates and grown in DMEM supplemented with 10% FBS (fetal bovine serum) at 37° C. in a 5% CO2 atmosphere. The cells in each cell were incubated for 24 hours with predetermined concentrations of each of the compounds (pterosin A, pterosin B, pterosin C, pterosin D, pterosin P, pterosin Z, pteroside A, pteroside A2, pteroside B, pteroside C isomers, pteroside D, pteroside N, pteroside P, and pteroside Z) and then for 2 hours with 100 μL of MTT (0.5 mg/ml PBS). After aspiration of the medium from each well, incubation was conducted for 10 min with 100 μL of DMSO. Absorbance at 570 nm was read using a microplate reader (SPCTRA MAX 340PC, Molecular Devices, USA). Absorbance is an index accounting for a number of viable cells and was used to calculate cell proliferation rates according to the following formula. All experiments were conducted three times for reproducibility.
(§5) Cell proliferation rate (%)=OD550 (sample)/OD550 (control)
(§6) The normal cell line NIH3T3 (mouse embryo fibroblast cell-line) and the cancerous cell line B16F10 (mouse melanoma cell-line) were separately grown in 96-well plates and incubated for 48 hours with predetermined concentrations of each of the compounds. After additional incubation with MTT, absorbance at 550 nm was read using a microplate reader. Absorbance is an index accounting for a number of viable cells and was used to calculate cell proliferation rates according to the following formula. All experiments were conducted three times for reproducibility.
(§7) Cell proliferation rate (%)=OD550(sample)/OD550(control)
(§8) Then, LD50 (Lethal Dose 50) values were calculated on the basis of changes in the cell proliferation rate.

[5] = test system: NIH3T3 (mouse embryo fibroblast cell-line); assay: MTT cytotoxicity assay, normal cell line; assay type: cell-based; details: conclusion from LD50, MTT
Method: as §4, §5, §6, §7, §8

[6] = concentrations up to 125 μM, read-out: IC50 Acetylcholine esterase Mean ± SEM
[7] = concentrations up to 125 μM, read-out: IC50 Butyrylcholine esterase Mean ± SEM

T2 sequence (O42275 24-633): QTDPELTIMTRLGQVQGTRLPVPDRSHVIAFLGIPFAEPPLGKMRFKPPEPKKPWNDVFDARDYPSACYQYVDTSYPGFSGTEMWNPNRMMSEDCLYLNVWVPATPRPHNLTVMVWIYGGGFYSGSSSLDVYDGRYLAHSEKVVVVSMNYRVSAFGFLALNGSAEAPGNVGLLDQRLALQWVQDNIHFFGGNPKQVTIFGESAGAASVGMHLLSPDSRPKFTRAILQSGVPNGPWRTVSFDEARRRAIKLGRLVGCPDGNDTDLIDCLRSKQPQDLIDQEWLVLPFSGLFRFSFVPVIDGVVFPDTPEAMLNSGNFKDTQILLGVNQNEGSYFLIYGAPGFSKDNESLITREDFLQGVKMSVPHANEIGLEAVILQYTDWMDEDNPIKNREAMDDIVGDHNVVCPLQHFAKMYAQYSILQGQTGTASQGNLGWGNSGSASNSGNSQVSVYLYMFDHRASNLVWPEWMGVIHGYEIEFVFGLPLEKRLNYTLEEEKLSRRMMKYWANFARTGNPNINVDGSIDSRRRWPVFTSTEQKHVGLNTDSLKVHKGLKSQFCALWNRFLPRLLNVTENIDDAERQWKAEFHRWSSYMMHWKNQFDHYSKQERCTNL
Chain of BACE1 (β-secretase, recombinant human enzyme) (P56817 46-501): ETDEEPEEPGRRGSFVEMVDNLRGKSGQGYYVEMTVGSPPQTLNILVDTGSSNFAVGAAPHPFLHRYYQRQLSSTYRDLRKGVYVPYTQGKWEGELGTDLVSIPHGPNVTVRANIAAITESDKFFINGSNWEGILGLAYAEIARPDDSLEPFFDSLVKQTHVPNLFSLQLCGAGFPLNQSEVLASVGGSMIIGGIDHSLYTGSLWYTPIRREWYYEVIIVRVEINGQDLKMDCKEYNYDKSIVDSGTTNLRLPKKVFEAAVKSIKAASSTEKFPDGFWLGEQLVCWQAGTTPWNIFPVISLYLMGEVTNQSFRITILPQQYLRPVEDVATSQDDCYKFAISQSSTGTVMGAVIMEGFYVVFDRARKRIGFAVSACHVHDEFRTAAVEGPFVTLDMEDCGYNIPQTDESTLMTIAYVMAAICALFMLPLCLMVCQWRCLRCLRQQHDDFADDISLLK
T1 sequence (P81908 whole entry): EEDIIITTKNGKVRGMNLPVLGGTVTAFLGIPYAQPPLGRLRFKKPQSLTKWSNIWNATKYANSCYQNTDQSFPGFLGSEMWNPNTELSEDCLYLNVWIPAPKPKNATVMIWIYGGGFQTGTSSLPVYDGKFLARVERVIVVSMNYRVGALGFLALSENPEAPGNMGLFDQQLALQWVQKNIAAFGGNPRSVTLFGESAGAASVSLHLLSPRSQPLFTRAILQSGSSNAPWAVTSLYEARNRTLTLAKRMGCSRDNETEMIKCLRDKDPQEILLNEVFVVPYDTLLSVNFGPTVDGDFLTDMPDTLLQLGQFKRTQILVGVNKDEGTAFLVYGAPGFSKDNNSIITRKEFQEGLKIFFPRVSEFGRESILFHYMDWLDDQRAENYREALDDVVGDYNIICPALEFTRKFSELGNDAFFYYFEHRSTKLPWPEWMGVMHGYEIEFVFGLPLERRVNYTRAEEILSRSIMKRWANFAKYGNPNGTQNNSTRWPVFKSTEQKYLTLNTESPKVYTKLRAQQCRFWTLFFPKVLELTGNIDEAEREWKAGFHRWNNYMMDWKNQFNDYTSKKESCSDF

| Compound | IC50 [1] | SI selectivity index (BChE/AChE) [2] | Inhibition type BACE1 [1] | BACE1 IC50 compared with quercetin, in words [1] | other results |
| --- | --- | --- | --- | --- | --- |
| Cc1cc2c(c(C)c1CCO)C(=O)[C@](C)(COC1O[C@H](CO)[C@@H](O)[C@H](O)[C@H]1O)C2 (stereo partly drawn) [Compound 13, (2S)-pteroside A2] | 94.4 ± 4.5 µM | 3.0 |  |  | IC50 [2]: 119 ± 2.5 µM |
| Cc1cc2c(c(C)c1CCO)C(=O)[C@H](C)[C@H]2O [Compound 7, (2R,3R)-pterosin C] | 15.9 ± 3.5 µM | 0.88 | mixed | lower than or similar to that of quercetin | Inhibition type Acetylcholinesterase [3]: noncompetitive; Inhibition type Butyrylcholinesterase [2]: mixed |
| Cc1cc2c(c(C)c1CCO[C@@H]1OC(CO)[C@@H](O)[C@H](O)C1O)C(=O)[C@@H](C)[C@H]2O (stereo partly drawn) [Compound 15, (2S,3R)-pteroside C] |  | 1.4 |  |  | IC50 [3, 6]: 9.57 ± 0.32 µM; IC50 [2, 7]: 12 ± 0.14 µM |
| Cc1c(CCO[C@@H]2OC(CO)[C@@H](O)[C@H](O)C2O)c(CO)cc2c1C(=O)[C@@H](C)C2 (stereo partly drawn) [Compound 19, (2S)-pteroside P] |  | 0.57 |  |  |  |
| Cc1cc2c(c(C)c1CCO[C@@H]1OC(CO)[C@@H](O)[C@H](O)C1O)C(=O)[C@](C)(O)C2 (single isomer, unassigned; (-)) [Compound 18, (−)-pteroside N] |  | 1.7 |  |  |  |
| Cc1c(CCO)c(CO)cc2c1C(=O)[C@@H](C)C2 [Compound 10, (2S)-pterosin P] | 40.8 ± 4.1 µM | 3.1 |  |  |  |
| Cc1cc2c(c(C)c1CCO)C(=O)[C@](C)(CO)C2 [Compound 3, (2S)-pterosin A] | 64.9 ± 5.1 µM | 12 |  |  | LD50 Cancer cell 816F10 [4]: 522 ± 25 µM; toxicity to cancerous cells, in words [4]: slight cytotoxicity; IC50 [3, 6]: 88.7 ± 2.6 µM; IC50 [2, 7]: 57.3 ± 3.3 µM |
| Cc1cc2c(c(C)c1CCO)C(=O)[C@H](C)C2 [Compound 4, (2R)-pterosin B] | 18 ± 2 µM | 3.0 | noncompetitive |  | Inhibition type Acetylcholinesterase [3]: mixed; AChE inhibition / IC50 rank, in words [3]: excellent; Inhibition type Butyrylcholinesterase [2]: noncompetitive |
| Cc1cc2c(c(C)c1CCO)C(=O)C(C)(C)[C@@H]2O [Compound 9, (3R)-Pterosin D] | 56.3 ± 3.9 µM |  |  |  | IC50 [2]: > 12 µM; BChE inhibition / IC50 rank, in words [2]: highest |
| Cc1cc2c(c(C)c1CCO[C@@H]1OC(CO)[C@@H](O)[C@H](O)C1O)C(=O)[C@H](C)C2 (stereo partly drawn) [Compound 14, (2R)-pteroside B] |  |  | noncompetitive |  | Inhibition type Acetylcholinesterase [3]: mixed; AChE inhibition / IC50 rank, in words [3]: lowest; also recorded: excellent; Inhibition type Butyrylcholinesterase [2]: mixed; BChE inhibition / IC50 rank, in words [2]: excellent; IC50 [2, 7]: 17 µM |
| CC(=O)C1(/C(C)=C\C2=CC(=O)C(C)C2)CC1 (stereo not drawn) [Compound 2, 3-[2-(1-Acetylcyclopropyl)-1-propenyl)-5-methyl-2-cyclopenten-1-one] | 19.4 ± 1.7 µM | 0.83 | mixed type | lower than or similar to that of quercetin | LD50 Cancer cell 816F10 [4]: 688 µM; toxicity to cancerous cells, in words [4]: slightly toxic; toxicity to normal cells, in words [5]: almost non-toxic; toxicity to normal cells, in words ([5]; listed as compound of Chemical Formula 2): non-toxic; IC50 [3]: 87.7 ± 1.6 µM; AChE inhibition / IC50 rank, in words [3]: highest; IC50 [2]: 72.9 ± 0.73 µM |
| Cc1cc2c(c(C)c1CCO[C@@H]1OC(CO)[C@@H](O)[C@H](O)C1O)C(=O)[C@H](C)[C@H]2O (stereo partly drawn) [Compound 16, (2R,3R)-pteroside C] |  | 1.4 | mixed | lower than or similar to that of quercetin | AChE inhibition / IC50 rank, in words [3]: excellent; BChE inhibition / IC50 rank, in words [2]: lowest |
| Cc1cc2c(c(C)c1CCO)C(=O)[C@@H](C)[C@@H]2O [Compound 6, (2S,3S)-pterosin C] |  |  |  | lower than or similar to that of quercetin | BChE inhibition / IC50 rank, in words [2]: excellent |
| Cc1cc2c(c(C)c1CCO)C(=O)C(C)(C)C2 [Compound 11, pterosin Z] | 48.7 ± 3.2 µM | 1.7 |  |  | LD50 Cancer cell 816F10 [4]: 618 ± 71 µM; toxicity to cancerous cells, in words [4]: slightly toxic; toxicity to normal cells, in words [5]: slightly toxic |
| Cc1cc2c(c(C)c1CCO[C@@H]1OC(CO)[C@@H](O)[C@H](O)C1O)C(=O)C(C)(C)C2 (stereo partly drawn) [Compound 20, pteroside Z] |  | 0.24 |  |  | BChE inhibition / IC50 rank, in words [2]: excellent |
| Cc1cc2c(c(C)c1CCO)C(=O)[C@@H](C)[C@H]2O [Compound 8, (2S,3R)-pterosin C] | 14.1 ± 1.6 µM | 3.5 | noncompetitive | lower than or similar to that of quercetin | Inhibition type Acetylcholinesterase [3]: mixed; Inhibition type Butyrylcholinesterase [2]: noncompetitive |
| Cc1cc2c(c(C)c1CCO[C@@H]1OC(CO)[C@@H](O)[C@H](O)C1O)C(=O)C(C)(C)[C@H]2O (stereo partly drawn) [Compound 17, (3S)-pteroside D] |  | 0.70 | mixed | lower than or similar to that of quercetin |  |
| Cc1cc2c(c(C)c1CCO[C@@H]1OC(CO)[C@@H](O)[C@H](O)C1O)C(=O)[C@](C)(CO)C2 (stereo partly drawn) [Compound 12, (2S)-pteroside A] |  |  |  |  | IC50 [2, 7]: 199 ± 0.25 µM |
